Usually LOAEL stands for the lowest tested level that showed an adverse finding. Broadly, the NOAEL is the highest tested level that showed no adverse finding.

The source of these data is EPA's ToxRefDB 2.

Series [1] has as its system rat. As to conditions: Subchronic oral toxicity in rodents, fischer, Feed, dose end: 13 week, group: systemic.
The subject of series [2] is mouse. The following applies: Subchronic oral toxicity in rodents, b6c3f1, Feed, dose end: 13 week, group: systemic.
Series [3] deals with mouse. As to conditions: Carcinogenicity, b6c3f1, Oral, Feed, dose end: 103 week, group: systemic.
Series [4] deals with rat. As to conditions: Carcinogenicity, fischer, Oral, Feed, dose end: 103 week, group: systemic.
Series [5] concerns rat. The following applies: Developmental neurotoxicity study, sprague dawley, Oral, Feed, dose end: 63 PND, group: cannot be grouped.
The test system of series [6] is rat. The following applies: Prenatal developmental toxicity study, sprague dawley, Inhalation, Whole-Body, dose end: 15 GD.
The subject of series [7] is rat. As to conditions: Subchronic oral toxicity in rodents, fischer, Water, dose end: 13 week.
For series [8], the system named is mouse. As to conditions: Subchronic oral toxicity in rodents, b6c3f1, Water, dose end: 13 week.
The subject of another series is guinea-pig. As to conditions: Subchronic dermal toxicity, hartley, Topical, dose end: 13 week, group: systemic, systemic / clinical chemistry / creatine phosphokinase / creatine phosphokinase + systemic / clinical chemistry / lactic acid dehydrogenase….
The test system of series [9] is rat. The following applies: Multigenerational reproductive toxicity study; sprague dawley; Oral; Water; dose end: 1 generation; group: reproductive; reproductive / offspring survival early / litter size / litter size + reproductive / offspring survival early / live fetuses / live fetuses.
The subject of series [10] is rat. The following applies: Combined chronic toxicity/carcinogenicity; wistar; Oral; Feed; dose end: 2 year; group: systemic; systemic / in life observation / clinical signs / aggressive behavior + systemic / in life observation / clinical signs / excitation + ….
Series [11] deals with mouse. As to conditions: Carcinogenicity; b6c3f1; Oral; Feed; dose end: 104 week; group: systemic; systemic / pathology microscopic / spleen / hematopoietic cell proliferation + systemic / pathology microscopic / stomach / hyperkeratosis.
Another series concerns dog. As to conditions: Chronic toxicity; beagle; Oral; Capsule; dose end: 104 PND; group: systemic; systemic / in life observation / clinical signs / [other].
Series [12] deals with rat. As to conditions: Carcinogenicity; other; Oral; Feed; dose end: 78 week; group: systemic; systemic / in life observation / clinical signs / abdominogenital staining + systemic / in life observation / clinical signs / fur (altered ….
Series [13] deals with mouse. As to conditions: Carcinogenicity, b6c3f1, Oral, Gavage/Intubation, dose end: 91 week, group: systemic.
Series [14] relates to mouse. The following applies: Subchronic oral toxicity in rodents, b6c3f1, Gavage/Intubation, dose end: 16 week, group: systemic.
Series [15] concerns rat. The following applies: Carcinogenicity, fischer, Oral, Gavage/Intubation, dose end: 2 year, group: systemic.
Series [16] relates to mouse. The following applies: Carcinogenicity, b6c3f1, Oral, Gavage/Intubation, dose end: 2 year, group: systemic.
For series [17], the system named is rat. As to conditions: Subchronic oral toxicity in rodents, fischer, Gavage/Intubation, dose end: 16 week.
The mark [18] stands for this setting: systemic / in life observation / food consumption / food consumption + systemic / organ weight / liver / absolute.
Where [19] appears, read: systemic / in life observation / clinical signs / ocular discharge + systemic / in life observation / clinical signs / aggressive behavior….
[20] abbreviates: systemic / pathology microscopic / kidney / karyomegaly.
The mark [21] stands for this setting: systemic / in life observation / body weight / body weight.
[22] abbreviates: systemic / in life observation / body weight / body weight + systemic / in life observation / clinical signs / [other] + systemic / in life ….
[23] abbreviates: systemic / in life observation / body weight / body weight + systemic / in life observation / clinical signs / aggressive behavior + ….
Setting [24] is: reproductive / reproductive performance / resorptions / resorptions + systemic / in life observation / body weight / body weight gain + ….
Where [25] appears, read: systemic / in life observation / body weight / fetal weight.
[26] abbreviates: group: developmental, developmental / developmental malformation / bone / short + developmental / developmental malformation / bone / wavy + developmental / ….
[27] abbreviates: group: developmental, developmental / developmental malformation / bone / wavy + developmental / developmental malformation / brain / dilated cerebral ventricle….
The mark [28] stands for this setting: group: maternal, reproductive / reproductive performance / resorptions / resorptions.
The mark [29] stands for this setting: group: maternal, reproductive / reproductive performance / estrous cycle / abnormal.
The mark [30] stands for this setting: group: systemic, systemic / organ weight / thymus / absolute + systemic / organ weight / thymus / relative to body weight.
[31] abbreviates: group: systemic, systemic / organ weight / testes / absolute + systemic / organ weight / testes / relative to body weight + systemic / pathology gross / ….
Where [32] appears, read: group: systemic, systemic / pathology gross / sperm measure / sperm count + systemic / pathology gross / sperm measure / sperm motility.
The mark [33] stands for this setting: systemic / pathology microscopic / adrenal gland / pheochromocytoma nos + systemic / pathology microscopic / liver / carcinoma + systemic / ….
[34] abbreviates: systemic / pathology microscopic / liver / carcinoma + systemic / in life observation / mortality / mortality + systemic / in life ….
[35] abbreviates: systemic / pathology microscopic / kidney / cytomegaly + systemic / pathology microscopic / kidney / karyomegaly + systemic / organ weight….
Where [36] appears, read: systemic / pathology microscopic / brain / degeneration + systemic / clinical chemistry / alanine aminotransferase (alt/sgpt) / alanine ….
Where [37] appears, read: systemic / pathology microscopic / brain / degeneration + systemic / pathology microscopic / brain / necrosis + systemic / pathology ….
[38] abbreviates: systemic / pathology microscopic / kidney / karyomegaly + systemic / pathology microscopic / harderian gland / adenoma.
The mark [39] stands for this setting: group: cholinesterase, cholinesterase / cholinesterase / cholinesterase / cholinesterase (che).
Setting [40] is: group: systemic, systemic / organ weight / kidney / absolute + systemic / organ weight / kidney / relative to body weight + systemic / organ weight / liver….

Consider `C[C@](N)(Cc1ccc(O)c(O)c1)C(=O)O.C[C@](N)(Cc1ccc(O)c(O)c1)C(=O)O.O.O.O` [Methyldopa sesquihydrate], for which the LEL is 155 mg/kg/day with rat [1] (setting [18]), 465 mg/kg/day in the series with mouse [2] (setting [19]), 830 mg/kg/day with mouse [3] (setting [22]) and 110 mg/kg/day in the series on rat [4] (setting [23]). The NEL with rat [1] (setting [18]) is less than 155 mg/kg/day; in the series on mouse [2] (setting [19]), less than 465 mg/kg/day; in the series with mouse [3] (setting [22]) it was less than 830 mg/kg/day; in the series with rat [4] (setting [23]) it was less than 110 mg/kg/day. For the same compound, the LOAEL with rat [1] (systemic / pathology microscopic / kidney / regeneration + systemic / in life observation / body weight / body weight) was found to be 625 mg/kg/day; in the series on mouse [2] (setting [20]), 1880 mg/kg/day; in the series on mouse [3] (setting [21]), 830 mg/kg/day; in the series on rat [4] (setting [21]), 110 mg/kg/day. Further, the NOAEL in the series on rat [1] (systemic / pathology microscopic / kidney / regeneration + systemic / in life observation / body weight / body weight + systemic / in life …) was 315 mg/kg/day; in the series with mouse [2] (systemic / pathology microscopic / kidney / karyomegaly + systemic / in life observation / body weight / body weight + systemic / in life …), 945 mg/kg/day; with mouse [3] (setting [21]) it was less than 830 mg/kg/day; in the series on rat [4] (setting [21]), less than 110 mg/kg/day.
On to `COCCO` [2-Methoxyethanol], for which the LOAEL was more than 620 mg/kg/day in the series on rat [5] (setting [24]); more than 200 ppm with rat [6] (setting [26]); more than 200 ppm in the series on rat [6] (setting [28]); more than 785 mg/kg/day in the series with rat [7] (setting [29]); 135 mg/kg/day in the series on rat [7] (group: systemic, systemic / in life observation / body weight / body weight + systemic / pathology microscopic / spleen / fibrosis); more than 1840 mg/kg/day in the series on mouse [8] (setting [29]). Further, the LOAEL was 529 mg/kg/day with mouse [8] (setting [31]) and more than 1000 mg/kg/day with guinea-pig. Moreover, the NOAEL in the series on rat [5] (setting [24]) was not below 620 mg/kg/day; in the series with rat [6] (setting [26]), not below 200 ppm; in the series with rat [6] (setting [28]), not below 200 ppm; with rat [7] (setting [29]), not below 785 mg/kg/day; in the series with rat [7] (group: systemic, systemic / in life observation / body weight / body weight + systemic / pathology microscopic / spleen / fibrosis + systemic / clinical …) it was 70 mg/kg/day; with mouse [8] (setting [29]), not below 1840 mg/kg/day. Further, the NOAEL in the series on mouse [8] (setting [31]) was 295 mg/kg/day; in the series on guinea-pig, not below 1000 mg/kg/day. The LEL in the series with rat [5] (setting [25]) is 16 mg/kg/day; with rat [6] (setting [27]) it was 50 ppm; in the series with rat [6] (setting [28]), 50 ppm; in the series with rat [7] (setting [29]), 135 mg/kg/day; in the series on rat [7] (setting [30]) it was 70 mg/kg/day; in the series with mouse [8] (setting [29]), 492 mg/kg/day. Further, the figures for the LEL in the series on mouse [8] (setting [32]) and with guinea-pig were 295 mg/kg/day and 1000 mg/kg/day, respectively. Also, the NEL with rat [5] (setting [25]) is less than 16 mg/kg/day; with rat [6] (setting [27]) it was less than 50 ppm; in the series on rat [6] (setting [28]), less than 50 ppm; with rat [7] (setting [29]), 70 mg/kg/day; in the series with rat [7] (setting [30]) it was less than 70 mg/kg/day; with mouse [8] (setting [29]), less than 492 mg/kg/day. Further, the NEL in the series with mouse [8] (setting [32]) is less than 295 mg/kg/day; in the series with guinea-pig it was less than 1000 mg/kg/day.
As for `Oc1ccccc1Cl` [2-Chlorophenol], in the series with rat [9], the LEL is 25 mg/kg/day, the LOAEL is more than 25 mg/kg/day, the NEL stood at 2.5 mg/kg/day and the no observed adverse effect level (NOAEL) is not below 25 mg/kg/day.
`Cc1ccc(N=CN(C)C=Nc2ccc(C)cc2C)c(C)c1` [Amitraz]: in the series on rat [10], the LEL came out at 3.13 mg/kg/day, the LOAEL was found to be 3.13 mg/kg/day, the NEL turned out to be 0.97 mg/kg/day and the NOAEL was 0.97 mg/kg/day. In addition, in the series with mouse [11], the LEL came to 2.31 mg/kg/day, the LOAEL is 2.31 mg/kg/day, the NEL was less than 2.31 mg/kg/day and the NOAEL is less than 2.31 mg/kg/day. Further, in the series with dog, the LEL was 1 mg/kg/day, the LOAEL amounted to 1 mg/kg/day, the NEL came out at 0.25 mg/kg/day and the NOAEL was 0.25 mg/kg/day.
For `ClCC(Cl)Cl` [1,1,2-Trichloroethane], in the series with rat [12], the LEL came out at 46 mg/kg/day, the lowest-observed-adverse-effect level (LOAEL) was more than 92 mg/kg/day, the NEL was less than 46 mg/kg/day and the NOAEL is not below 92 mg/kg/day. In addition, in the series with mouse [13] (setting [33]), the lowest observed adverse effect level (LOAEL) was more than 390 mg/kg/day and the NOAEL was not below 390 mg/kg/day. Besides, in the series on mouse [13] (setting [34]), the LEL is 195 mg/kg/day and the NEL was less than 195 mg/kg/day.
Turning to `O=P(OCCCl)(OCCCl)OCCCl` [Tris(2-chloroethyl) phosphate], the LEL is 175 mg/kg/day in the series with mouse [14] (systemic / organ weight / liver / absolute + systemic / organ weight / liver / relative to body weight + systemic / organ weight / kidney / …); 88 mg/kg/day with rat [15] (setting [37]); 175 mg/kg/day in the series on mouse [16] (setting [38]); 175 mg/kg/day in the series with rat [17] (setting [39]); 44 mg/kg/day in the series with rat [17] (setting [40]). Moreover, the lowest-observed-adverse-effect level (LOAEL) is 700 mg/kg/day in the series on mouse [14] (systemic / pathology microscopic / kidney / cytomegaly + systemic / pathology microscopic / kidney / karyomegaly); 88 mg/kg/day in the series with rat [15] (setting [37]); 175 mg/kg/day with mouse [16] (setting [20]); 175 mg/kg/day with rat [17] (setting [39]); 175 mg/kg/day with rat [17] (group: systemic, systemic / in life observation / clinical signs / hyperactivity + systemic / pathology microscopic / brain / necrosis). The NEL with mouse [14] (setting [35]) is 88 mg/kg/day; with rat [15] (setting [36]), 44 mg/kg/day; in the series on mouse [16] (setting [38]) it was less than 175 mg/kg/day; with rat [17] (setting [39]), 88 mg/kg/day; with rat [17] (setting [40]) it was 22 mg/kg/day. Moreover, the NOAEL is 350 mg/kg/day in the series with mouse [14] (setting [35]); 44 mg/kg/day in the series with rat [15] (setting [36]); less than 175 mg/kg/day in the series with mouse [16] (setting [20]); 88 mg/kg/day in the series with rat [17] (setting [39]); 88 mg/kg/day in the series with rat [17] (setting [40]).
